From DBAASP
In brackets after ≈: the same amount, converted by molar mass.

Key:
Assay in all cases: ≥ marks a high value that may be exact or a test limit, other limits are often not marked, values filed in µg/mL are converted to µM
[1] = tested on: Staphylococcus aureus NCTC 8325
Streptococcus mutans = tested on: Streptococcus mutans
[2] = tested on: Enterococcus faecalis ATCC 29212
[3] = tested on: Escherichia coli ATCC 25922
[4] = tested on: Staphylococcus aureus ATCC 25923
Streptococcus agalactiae = tested on: Streptococcus agalactiae
[5] = tested on: Bacillus subtilis ATCC 6051
[6] = tested on: Mycobacterium tuberculosis H37Rv
[7] = tested on: Candida albicans ATCC 90028
Bacillus subtilis 168 = tested on: Bacillus subtilis 168
Escherichia coli B = tested on: Escherichia coli B
Pseudomonas aeruginosa = tested on: Pseudomonas aeruginosa
Staphylococcus aureus = tested on: Staphylococcus aureus
[8] = tested on: Pseudomonas aeruginosa ATCC 27853

An MIC [1] of no less than 70 µM was found for `CC[C@H](C)[C@H](NC(=O)[C@H](CC(C)C)NC(=O)CNC(=O)[C@H](CO)NC(=O)[C@H](CC(C)C)NC(=O)[C@@H](NC(=O)[C@H](CCCCN)NC(=O)CNC(=O)[C@@H](NC(=O)[C@H](CC(C)C)NC(=O)[C@@H]1CCCN1C(=O)[C@H](CC(C)C)NC(=O)[C@@H](N)Cc1ccccc1)C(C)C)[C@@H](C)CC)C(N)=O` [FLPLVGKILSGLI] in this work.

An MIC (Streptococcus mutans) of 6.76 µM (≈ 16 µg/mL) was found for `NC(=O)[C@H](Cc1ccccc1)NC(=O)[C@H](Cc1c[nH]c2ccccc12)NC(=O)[C@H](CCCN=C(N)N)NC(=O)[C@H](Cc1c[nH]c2ccccc12)NC(=O)[C@H](CCCN=C(N)N)NC(=O)[C@H](Cc1c[nH]c2ccccc12)NC(=O)[C@H](CCCN=C(N)N)NC(=O)[C@H](Cc1ccccc1)NC(=O)[C@H](Cc1c[nH]c2ccccc12)NC(=O)[C@H](CCCN=C(N)N)NC(=O)[C@H](Cc1c[nH]c2ccccc12)NC(=O)[C@H](CCCN=C(N)N)NC(=O)[C@H](Cc1c[nH]c2ccccc12)NC(=O)[C@@H](N)CCCN=C(N)N` [RWRWRWFRWRWRWF] in this work.

An MIC [2] of 8.7 µM (≈ 18.8 µg/mL), an MIC [3] of 8.7 µM (≈ 18.8 µg/mL) and an MIC [4] of 69.4 µM (≈ 150 µg/mL) were found for `CC(C)C[C@H](NC(=O)[C@H](C)N)C(=O)N[C@@H](Cc1ccc(O)cc1)C(=O)N[C@@H](CCCCN)C(=O)N[C@@H](CCCCN)C(=O)N[C@@H](Cc1ccccc1)C(=O)N[C@@H](CCCCN)C(=O)N[C@@H](CCCCN)C(=O)N[C@@H](CCCCN)C(=O)N[C@@H](CC(C)C)C(=O)N[C@@H](CC(C)C)C(=O)N[C@@H](CCCCN)C(=O)N[C@@H](CO)C(=O)N[C@@H](CC(C)C)C(=O)N[C@@H](CCCCN)C(=O)N[C@@H](CCCN=C(N)N)C(=O)N[C@@H](CC(C)C)C(=O)NCC(=O)O` [ALYKKFKKKLLKSLKRLG] in this work. It also gave an MIC (Streptococcus agalactiae) of 4.3 µM (≈ 9.3 µg/mL).

An MIC [5] of no less than 1000 µM was found for `NCCCC[C@H](NC(=O)[C@H](CCC(=O)O)NC(=O)[C@H](CC(=O)O)NC(=O)[C@H](CCC(=O)O)NC(=O)[C@H](CC(=O)O)NC(=O)[C@H](CCC(=O)O)NC(=O)[C@H](CC(=O)O)NC(=O)[C@H](CCC(N)=O)NC(=O)[C@H](CCCN=C(N)N)NC(=O)[C@@H](N)CO)C(=O)N[C@@H](CCCN=C(N)N)C(=O)N[C@@H](CCCN=C(N)N)C(=O)N1CCC[C@H]1C(=O)N[C@@H](CCCN=C(N)N)C(=O)O` [SRQDEDEDEKRRPR] in this work.

An MIC [6] of 12.1 µM (≈ 20 µg/mL) was found for `CC[C@H](C)[C@H](NC(=O)[C@H](CCCCN)NC(=O)[C@@H](NC(=O)[C@H](Cc1ccccc1)NC(=O)[C@@H](NC(=O)[C@@H]1CCCN1C(=O)[C@H](CS)NC(=O)[C@H](C)N)[C@@H](C)CC)[C@@H](C)O)C(=O)N[C@@H](CCC(N)=O)C(=O)NCC(=O)N[C@H](C(=O)N[C@@H](CS)C(=O)N[C@@H](Cc1ccc(O)cc1)C(=O)N[C@@H](CCCN=C(N)N)C(=O)NCC(=O)O)[C@@H](C)O` [ACPIFTKIQGTCYRG] in this work.

An MIC [7] of no less than 50 µM, an MIC [3] of 6 µM (≈ 29.2 µg/mL) and an MIC [1] of 12.5 µM (≈ 60.8 µg/mL) were found for `CC[C@H](C)[C@H](NC(=O)CNC(=O)[C@H](CCCCN)NC(=O)CNC(=O)[C@H](C)NC(=O)[C@H](Cc1ccccc1)NC(=O)[C@H](CCCCN)NC(=O)[C@H](CO)NC(=O)[C@H](Cc1ccccc1)NC(=O)[C@H](CC(C)C)NC(=O)CN)C(=O)N[C@@H](CCCCN)C(=O)N[C@@H](CC(N)=O)C(=O)N[C@@H](CC(C)C)C(=O)N[C@H](C(=O)N[C@@H](Cc1ccccc1)C(=O)N[C@@H](CCCCN)C(=O)NCC(=O)N[C@H](C(=O)N[C@@H](CCCCN)C(=O)N[C@@H](Cc1cnc[nH]1)C(=O)N[C@H](C(=O)NCC(=O)N[C@@H](CCCCN)C(=O)N[C@@H](CCC(=O)O)C(=O)N[C@H](C(=O)NCC(=O)N[C@@H](CCSC)C(=O)N[C@@H](CC(=O)O)C(=O)N[C@H](C(=O)N[C@H](C(=O)N[C@@H](CCCN=C(N)N)C(=O)N[C@H](C(=O)NCC(=O)N[C@H](C(=O)N[C@@H](CC(=O)O)C(=O)N[C@H](C(=O)N[C@@H](C)C(=O)NCC(=O)N[C@H]1CSSC[C@@H](C(=O)O)NC(=O)[C@H](CCC(=O)O)NC(=O)CNC(=O)[C@H](CCCCN)NC(=O)[C@H]([C@@H](C)CC)NC(=O)[C@H](CCCCN)NC1=O)C(C)C)[C@@H](C)CC)[C@@H](C)O)[C@@H](C)CC)C(C)C)C(C)C)[C@@H](C)CC)C(C)C)[C@@H](C)CC` [GLFSKFAGKGIKNLIFKGVKHIGKEVGMDVIRTGIDVAGCKIKGEC] in this work.

An MIC (Streptococcus mutans) of no less than 93.4 µM was found for `CC[C@H](C)[C@H](NC(=O)[C@H](CCC(N)=O)NC(=O)[C@H](CCCCN)NC(=O)[C@@H](NC(=O)[C@H](CCC(N)=O)NC(=O)[C@H](CC(N)=O)NC(=O)[C@H](CC(C)C)NC(=O)[C@@H](NC(=O)[C@@H](N)CCCN=C(N)N)C(C)C)C(C)C)C(=O)N[C@@H](CC(C)C)C(=O)N[C@@H](CCCCN)C(=O)O` [RVLNQVKQILK] in this work.

An MIC [6] of no less than 89.3 µM was found for `CC[C@H](C)[C@H](NC(=O)[C@H](CC(C)C)NC(=O)[C@@H](N)CCCN=C(N)N)C(=O)N[C@@H](CCCN=C(N)N)C(=O)N[C@H](C(=O)N[C@@H](CCC(=O)O)C(=O)N[C@@H](CCCN=C(N)N)C(=O)N[C@@H](CC(=O)O)C(=O)N[C@@H](CO)C(=O)N[C@H](C(=O)N[C@@H](CCC(=O)O)C(=O)N[C@@H](C)C(=O)N[C@@H](CC(C)C)C(=O)N[C@@H](CCSC)C(=O)N[C@@H](CCCN=C(N)N)C(=O)N1CCC[C@H]1C(=O)N[C@H](C(=O)NCC(=O)N[C@@H](CCCCN)C(=O)O)[C@@H](C)CC)C(C)C)C(C)C` [RLIRVERDSVEALMRPIGK] in this work.

An MIC (Streptococcus mutans) of 4.64 µM (≈ 8 µg/mL) was found for `CC(C)C[C@H](NC(=O)[C@H](CC(C)C)NC(=O)[C@H](CCCCN)NC(=O)[C@H](CCCCN)NC(=O)[C@H](CC(C)C)NC(=O)[C@H](CCCCN)NC(=O)[C@H](CCCCN)NC(=O)[C@H](CC(C)C)NC(=O)[C@H](CC(C)C)NC(=O)[C@H](CCCCN)NC(=O)[C@H](CCCCN)NC(=O)[C@H](CC(C)C)NC(=O)[C@@H](N)CCCCN)C(=O)N[C@@H](CCCCN)C(=O)O` [KLKKLLKKLKKLLK] in this work.

An MIC [7] of 25 µM (≈ 58.4 µg/mL), an MIC [3] of 6.25 µM (≈ 14.6 µg/mL) and an MIC [1] of 3.13 µM (≈ 7.31 µg/mL) were found for `CC[C@H](C)[C@H](NC(=O)[C@H](CC(C)C)NC(=O)[C@H](CCCCN)NC(=O)[C@H](CCCCN)NC(=O)[C@@H](NC(=O)[C@H](C)NC(=O)[C@H](CCCCN)NC(=O)[C@@H](NC(=O)[C@H](C)NC(=O)[C@H](Cc1cnc[nH]1)NC(=O)[C@@H]1CCCN1C(=O)[C@@H](NC(=O)[C@H](CC(C)C)NC(=O)[C@@H]1CCCN1C(=O)CNC(=O)[C@@H](NC(=O)[C@H](Cc1ccc(O)cc1)NC(=O)[C@H](CCCCN)NC(=O)[C@H](CCSC)NC(=O)[C@H](Cc1ccccc1)NC(=O)CN)[C@@H](C)CC)[C@@H](C)CC)C(C)C)[C@@H](C)CC)C(N)=O` [GFMKYIGPLIPHAVKAIKKLI] in this work.

An MIC (Bacillus subtilis 168) of 1.4 µM (≈ 2.14 µg/mL), an MIC (Escherichia coli B) of 8 µM (≈ 12.2 µg/mL) and an MIC (Pseudomonas aeruginosa) of 32.5 µM (≈ 49.6 µg/mL) were found for `CC[C@H](C)[C@H](NC(=O)[C@H](Cc1cnc[nH]1)NC(=O)[C@H](CCCCN)NC(=O)[C@H](Cc1c[nH]c2ccccc12)NC(=O)[C@H](CC(C)C)NC(=O)[C@H](CO)NC(=O)[C@H](CCSC)NC(=O)[C@H](Cc1c[nH]c2ccccc12)NC(=O)[C@H](CCCCN)NC(=O)CN)C(=O)N[C@@H](CC(C)C)C(=O)N[C@@H](CCCCN)C(N)=O` [GKWMSLWKHILK] in this work. It also gave an MIC (Staphylococcus aureus) of 27 µM (≈ 41.2 µg/mL).

An MIC (Streptococcus mutans) of 11.5 µM (≈ 32 µg/mL) was found for `NC(=O)[C@H](Cc1ccccc1)NC(=O)[C@H](Cc1c[nH]c2ccccc12)NC(=O)[C@H](CCCN=C(N)N)NC(=O)[C@H](Cc1c[nH]c2ccccc12)NC(=O)[C@H](CCCN=C(N)N)NC(=O)[C@H](Cc1c[nH]c2ccccc12)NC(=O)[C@H](CCCN=C(N)N)NC(=O)[C@@H]1CCCN1C(=O)[C@H](CO)NC(=O)CNC(=O)[C@H](CO)NC(=O)[C@@H]1CCCN1C(=O)[C@H](Cc1ccccc1)NC(=O)[C@H](Cc1c[nH]c2ccccc12)NC(=O)[C@H](CCCN=C(N)N)NC(=O)[C@H](Cc1c[nH]c2ccccc12)NC(=O)[C@H](CCCN=C(N)N)NC(=O)[C@H](Cc1c[nH]c2ccccc12)NC(=O)[C@@H](N)CCCN=C(N)N` [RWRWRWFPSGSPRWRWRWF] in this work.

An MIC [5] of 9.56 µM (≈ 16 µg/mL), an MIC [3] of 9.56 µM (≈ 16 µg/mL) and an MIC [8] of 4.78 µM (≈ 8 µg/mL) were found for `CC[C@H](C)[C@H](NC(=O)[C@H](Cc1c[nH]c2ccccc12)NC(=O)[C@H](Cc1ccccc1)NC(=O)[C@H](CC(C)C)NC(=O)CN)C(=O)N[C@H](C(=O)N[C@@H](CCCCN)C(=O)N[C@@H](CCCCN)C(=O)N[C@H](C(=O)N[C@H](C(=O)NCC(=O)N[C@@H](CCCCN)C(=O)N[C@@H](CC(C)C)C(=O)N[C@@H](CCCN=C(N)N)C(=O)O)[C@@H](C)CC)[C@@H](C)O)[C@@H](C)CC` [GLFWIIKKTIGKLR] in this work. The MIC [4] was 76.5 µM (≈ 128 µg/mL).
